# Source: ChEMBL document CHEMBL5214910, “Rational Design of Dipicolylamine-Containing Carbazole Amphiphiles Combined with Zn2+ as Potent Broad-Spectrum Antibacterial Agents with a Membrane-Disruptive Mechanism” (J Med Chem, 2021)
# Active and inactive are the calls of the source. The calls are words filed in the database; no cut-off is given here.
# Experiments:
# Pseudomonas aeruginosa [1] = test: Antibacterial activity Pseudomonas aeruginosa ATCC 9027 assessed as inhibition of bacterial growth incubated for 24 hrs in the presence of 12.5 ug/mL Zn2+ by Muller hinton broth based dilution assay; format: functional
# Lipopolysaccharide (LPS) [2] = test: Displacement of BODIPY-TR-cadaverin from Pseudomonas aeruginosa Lipopolysaccharide at 4 times of MIC incubated for 30 mins in the presence of 12.5 ug/ml Zn2+ by fluorescence based microplate reader analysis relative to control
# Staphylococcus aureus [3] = test: Antibacterial activity against Methicillin-resistant Staphylococcus aureus N315 assessed as inhibition of bacterial growth by measuring salt resistance incubated for 24 hrs in the presence of 12.5 ug/ml Zn2+ and 3220 ug/ml Na+ by Muller hinton broth based dilution assay; format: functional
# Staphylococcus aureus [4] = test: Antibacterial activity against Staphylococcus aureus ATCC 29213 assessed as inhibition of bacterial growth incubated for 24 hrs in the presence of 50 ug/mL Zn2+ by Muller hinton broth based dilution assay; format: functional
# Pseudomonas aeruginosa [5] = test: Antibacterial activity Pseudomonas aeruginosa ATCC 9027 assessed as inhibition of bacterial growth incubated for 24 hrs in the presence of 6.25 ug/mL Zn2+ by Muller hinton broth based dilution assay; format: functional
# Staphylococcus aureus [6] = test: Antibacterial activity against Staphylococcus aureus ATCC 29213 assessed as inhibition of bacterial growth incubated for 24 hrs in the presence of 3.125 ug/mL Zn2+ by Muller hinton broth based dilution assay; format: functional
# Pseudomonas aeruginosa [7] = test: Antibacterial activity Pseudomonas aeruginosa ATCC 9027 assessed as inhibition of bacterial growth incubated for 24 hrs in the presence of 0.78 ug/mL Zn2+ by Muller hinton broth based dilution assay; format: functional
# Escherichia coli [8] = test: Antibacterial activity against Escherichia coli ATCC 25922 assessed as inhibition of bacterial growth by measuring salt resistance incubated for 24 hrs in the presence of 12.5 ug/ml Zn2+ and 24.3 ug/ml Mg2+ by Muller hinton broth based dilution assay; format: functional
# Escherichia coli [9] = test: Antibacterial activity Escherichia coli ATCC 25922 assessed as inhibition of bacterial growth incubated for 24 hrs in the presence of 50 ug/mL Zn2+ by Muller hinton broth based dilution assay; format: functional
# Acinetobacter baumannii [10] = test: Antibacterial activity against Acinetobacter baumannii R2889 assessed as inhIbition of bacterial growth incubated for 24 hrs in the presence of 12.5 ug/mL Zn2+ by Muller hinton broth based dilution assay; format: functional
# Lipopolysaccharide (LPS) [11] = test: Displacement of BODIPY-TR-cadaverin from Pseudomonas aeruginosa Lipopolysaccharide at 2 times of MIC incubated for 30 mins in the presence of 12.5 ug/ml Zn2+ by fluorescence based microplate reader analysis relative to control
# Staphylococcus aureus [12] = test: Antibacterial activity against Staphylococcus aureus ATCC 29213 assessed as inhibition of bacterial growth by measuring salt resistance incubated for 24 hrs in the presence of 12.5 ug/ml Zn2+ and 100 ug/ml Ca2+ by Muller hinton broth based dilution assay; format: functional
# Escherichia coli [13] = test: Antibacterial activity Escherichia coli ATCC 25922 assessed as inhibition of bacterial growth incubated for 24 hrs in the presence of […] ug/mL Zn2+ by Muller hinton broth based dilution assay; format: functional
# Cell membrane [14] = test: Disruption of cell membrane integrity in Escherichia coli ATCC 25922 assessed as increase in red fluorescence at 8 times of MIC measured for 2 hrs in the presence of 12.5 ug/ml Zn2+ by PI and SYTO staining based assay; format: subcellular
# Pseudomonas aeruginosa [15] = test: Antibacterial activity Pseudomonas aeruginosa ATCC 9027 assessed as inhibition of bacterial growth incubated for 24 hrs in the presence of 25 ug/mL Zn2+ by Muller hinton broth based dilution assay; format: functional
# Pseudomonas aeruginosa [16] = test: Antibacterial activity Pseudomonas aeruginosa ATCC 9027 assessed as inhibition of bacterial growth incubated for 24 hrs in the presence of 50 ug/mL Zn2+ by Muller hinton broth based dilution assay; format: functional
# Cell membrane [17] = test: Disruption of cell membrane integrity in Escherichia coli ATCC 25922 assessed as increase in fluorescence intensity at 2 times to 8 times of MIC measured for 1 hrs in the presence of 12.5 ug/ml Zn2+ by SYTOX green dye based assay; format: subcellular; settings: DDE = dose-dependent effect
# Staphylococcus aureus [18] = test: Antibacterial activity against Methicillin-resistant Staphylococcus aureus N315 assessed as inhibition of bacterial growth by measuring salt resistance incubated for 24 hrs in the presence of 12.5 ug/ml Zn2+ and 100 ug/ml Ca2+ by Muller hinton broth based dilution assay; format: functional
# Staphylococcus aureus [19] = test: Antibacterial activity against Methicillin-resistant Staphylococcus aureus NCTC10442 assessed as inhibition of bacterial growth incubated for 24 hrs in the presence of 50 ug/mL Zn2+ by Muller hinton broth based dilution assay; format: functional
# Staphylococcus aureus [20] = test: Antibacterial activity against Methicillin-resistant Staphylococcus aureus NCTC10442 assessed as inhibition of bacterial growth by measuring salt resistance incubated for 24 hrs in the presence of 12.5 ug/ml Zn2+ and 24.3 ug/ml Mg2+ by Muller hinton broth based dilution assay; format: functional
# Staphylococcus aureus [21] = test: Antibacterial activity against Staphylococcus aureus ATCC 29213 assessed as inhibition of bacterial growth incubated for 24 hrs in the presence of 6.25 ug/mL Zn2+ by Muller hinton broth based dilution assay; format: functional
# Staphylococcus aureus [22] = test: Antibacterial activity against Staphylococcus aureus ATCC 29213 assessed as inhibition of bacterial growth incubated for 24 hrs in the presence of 0.78 ug/mL Zn2+ by Muller hinton broth based dilution assay; format: functional
# Cell membrane [23] = test: Induction of outer membrane permeabilization in Escherichia coli ATCC 25922 assessed as increase in fluorescence intensity at 2 times to 8 times MIC measured for 1 hrs in the presence of 12.5 ug/ml Zn2+ by NPN uptake assay; format: subcellular; settings: DDE = dose-dependent effect
# Acinetobacter baumannii [24] = test: Antibacterial activity against Acinetobacter baumannii R2889 assessed as inhIbition of bacterial growth incubated for 24 hrs by Muller hinton broth based dilution assay; format: functional
# Cell membrane [25] = test: Disruption of cell membrane integrity in Staphylococcus aureus ATCC 29213 assessed as increase in fluorescence intensity at 2 times to 8 times of MIC measured for 1 hrs in the presence of 12.5 ug/ml Zn2+ by SYTOX green dye based assay; format: subcellular; settings: DDE = dose-dependent effect
# Acinetobacter baumannii [26] = test: Antibacterial activity against Acinetobacter baumannii ATCC 17978 assessed as inhibition of bacterial growth by measuring salt resistance incubated for 24 hrs in the presence of 12.5 ug/ml Zn2+ and 100 ug/ml […] by Muller hinton broth based dilution assay; format: functional
# Staphylococcus aureus [27] = test: Antibacterial activity against Methicillin-resistant Staphylococcus aureus N315 assessed as inhibition of bacterial growth by measuring salt resistance incubated for 24 hrs in the presence of 12.5 ug/ml Zn2+ and 24.3 ug/ml Mg2+ by Muller hinton broth based dilution assay; format: functional
# Escherichia coli [28] = test: Antibacterial activity against Escherichia coli ATCC 25922 assessed as log reduction in bacterial count at 4 times of MIC incubated for 1 hrs in the presence of 12.5 ug/ml Zn2+ by Muller hinton agar based time kill assay; format: functional
# Staphylococcus aureus [29] = test: Antibacterial activity against Methicillin-resistant Staphylococcus aureus NCTC10442 assessed as inhibition of bacterial growth incubated for 24 hrs in the presence of 25 ug/mL Zn2+ by Muller hinton broth based dilution assay; format: functional
smiles,measurement,setting,value
CC(C)=CCn1c2ccccc2c2c(OCC(O)CN(Cc3ccccn3)Cc3ccccn3)cccc21 (centres undefined),MIC,Pseudomonas aeruginosa [1],3.12 µg/mL
same,Activity,Lipopolysaccharide (LPS) [2],59.5%
same,MIC,Staphylococcus aureus [3],0.78 µg/mL
same,MIC,Staphylococcus aureus [4],0.78 µg/mL
same,MIC,Pseudomonas aeruginosa [5],3.12 µg/mL
same,MIC,Staphylococcus aureus [6],3.12 µg/mL
same,MIC,Pseudomonas aeruginosa [7],> 50 µg/mL
same,MIC,Escherichia coli [8],3.12 µg/mL
same,MIC,Escherichia coli [9],1.56 µg/mL
same,MIC,Acinetobacter baumannii [10],1.56 µg/mL
same,Activity,Lipopolysaccharide (LPS) [11],39.1%
same,MIC,Staphylococcus aureus [12],3.12 µg/mL
same,MIC,Escherichia coli [13],6.25 µg/mL
same,Activity,Cell membrane [14],Active
same,MIC,Pseudomonas aeruginosa [15],3.12 µg/mL
same,MIC,Pseudomonas aeruginosa [16],3.12 µg/mL
same,Activity,Cell membrane [17],Dde
same,MIC,Staphylococcus aureus [18],3.12 µg/mL
same,MIC,Staphylococcus aureus [19],0.78 µg/mL
same,MIC,Staphylococcus aureus [20],1.56 µg/mL
same,MIC,Staphylococcus aureus [21],1.56 µg/mL
same,MIC,Staphylococcus aureus [22],3.12 µg/mL
same,Activity,Cell membrane [23],Dde
same,MIC,Acinetobacter baumannii [24],3.12 µg/mL
same,Activity,Cell membrane [25],Dde
same,MIC,Acinetobacter baumannii [26],3.12 µg/mL
same,MIC,Staphylococcus aureus [27],1.56 µg/mL
same,log(activity),Escherichia coli [28],2.91
same,MIC,Staphylococcus aureus [29],0.78 µg/mL
